# Data: patent US5663165A, “Hypolipidaemic benzothiazepine compounds” (Glaxo Wellcome Inc., priority 1992, dated 1997)
# System: sodium-dependent 3H taurocholate uptake in rat distal ileal brush border membrane vesicles
# Experiment: In vitro inhibition of bile acid uptake
# Type: biochemical
# Conditions: 10 μM 3H taurocholate, 30 seconds at 24° C., active (sodium-dependent) uptake vs control
# Procedure: In vitro inhibition of bile acid uptake
# Freshly prepared rat distal ileal brush border membrane vesicles (about […] vesicle protein) were incubated for 30 seconds at 24° C. in an incubation mixture comprising 10 μM ^3 H taurocholate, 100 mM NaCl (or KCl) and 80 mM mannitol in 20 mM Hepes Tris pH 7.4. Each test compound was dissolved in ethanol (or water) and then diluted with incubation mixture to an ethanol concentration of not more than 1% v/v. The incubation was terminated by rapid dilution and filtration and the filter washed with an ice-cold isotonic sodium-free buffer.
# The uptake of ^3 H taurocholate was measured by the radioactivity remaining on the filter and converted to pmoles/mg vesicle protein. The active, ie sodium-dependent, uptake was obtained by subtracting the passive uptake measured in 100 mM KCl from the total uptake measured in 100 mM NaCl. The active uptake for each test compound was compared with a control active uptake and the results expressed at % inhibition of bile acid uptake.
structure (smiles),measurement,setting,value
"CCCC[C@]1(CC)CS(=O)(=O)c2ccccc2[C@@H](c2ccccc2)N1 [Synthetic Example 1, (-)-(RR)-3-butyl-3-ethyl-2,3,4,5-tetrahydro-5-phenyl-1,4-benzothiazepine-1,1-dioxide]",% inhibition of bile acid uptake,0.3 μM test compound,55%
same,% inhibition of bile acid uptake,1 μM test compound,69%
same,% inhibition of bile acid uptake,3 μM test compound,85%
same,% inhibition of bile acid uptake,10 μM test compound,96%
